We go through one substance from patent US20070265212A1, “Drug Transport and Delivery System” (LUZERN ACQUISITION CORP., C/O STRELA DEVELOPMENT, priority 2002, published 2007).

The test system of data set [1] is human melanoma cells. The experiment in a line: Metabolite formation in the presence of human melanoma cells (HPLC, mass spectrometry). Type of data set: in vitro ADME. To be noted: identified by HPLC and mass spectrometry. The method, then: (§1) These metabolites were identified by HPLC and mass spectrometry to be m-L-Sarcolysin, prolyl-m-L-sarcolysin, fluoro-phenylalanine and prolyl-m-sarcolysyl-p-fluoro-phenylalanin.
(§2) According to hitherto is available results this metabolite is most probably ADM linked to one Phe moiety. This was done with 1 ml of blood containing 20 μg/ml of the ADM derivative as well as 5×10^9 RBC compared to only 5×10^6 melanoma cells.

The subject of data set [2] is red blood cells. The experiment in a line: Metabolite formation in the presence of red blood cells (HPLC, mass spectrometry). Type of data set: in vitro ADME. To be noted: identified by HPLC and mass spectrometry. The method, then: as §1, §2

As for “Prolyl-m-sarcolysyl-p-fluoro-phenylalanin [PSF]”, the “metabolites in the presence of cancer cells” value in data set [1] was determined as 4. The “metabolites in presence of red blood cells” value in data set [2] is “one major metabolite, namely m-L-sarcolysin”.
